# Results taken from US20250145645A1, “BORON CARRYING AGENT, PREPARATION METHOD AND PHARMACEUTICAL FORMULATION THEREOF” (Peking University, priority 2021, published 2025).
# What was measured:
# [1] = test system: rat cerebral 9L gliosarcoma; conditions: cited from earlier work
# [2] = test system: U87MG, U251, A549 and A375 cell lines; experiment: Boron uptake in tumor cell lines, B content in cells by ICP-AES; type: cell-based; conditions: 0.1-0.8 mg/g aqueous solutions, 12 hours incubation, FIG. 1
# Description: (§1) Compound I was formulated into aqueous solutions of 0.1 mg/g. 0.2 mg/g. 0.4 mg/g. 0.6 mg/g and 0.8 mg/g, added to U87MG, U251, A549 and A375 cell lines cultured in 25T petri dishes, respectively, and incubated in a thermostatic incubator for 12 hours. Subsequently, the cells and culture medium were separated, and the number of cells was determined. After the cells were digested with concentrated nitric acid, the B content in the cells was determined by ICP-AES.
# (§2) The […] was 249.772 nm.
# [3] = test system: cerebral glioma U87MG cells; experiment: Boron uptake in cells, B content by ICP-AES; type: cell-based; conditions: 12 hours, FIG. 3
# Description: as §1, §2
# (§3) Meanwhile, the BPA was formulated into aqueous solutions of 0.1 mg/g, 0.2 mg/g, 0.4 mg/g, 0.6 mg/g, and 0.8 mg/g, added into U87MG, U251, A375 and HS683 cell lines cultured in 25T petri dishes, respectively, and cultured in a thermostatic incubator for 12 hours. Subsequently, the cells and culture medium were separated, and the number of cells was determined. After the cells were digested with concentrated nitric acid, the B content in the cells was determined by ICP-AES and plotted as shown in FIG. 2.
# glioma cell line U251 = experiment: Boron uptake in cells, B content by ICP-AES; type: cell-based
# Description: as §1, §2, §3
# [4] = test system: cerebral glioma HS683 cells; experiment: Boron uptake in cells, B content by ICP-AES; type: cell-based; conditions: 12 hours, FIG. 3
# HS683 cerebral glioma = experiment: Tissue uptake in mouse cerebral glioma model, ICP-MS; type: in vivo, BALB/c mice; conditions: 500 mg/kg via tail vein, two hours after administration, FIG. 4
# Description: Healthy BALB/c mice with an average weight of approximately 21 g were selected and inoculated with HS683 cerebral glioma to establish a mouse cerebral glioma model. After 21 days, the mouse cerebral glioma model was generated, and 500 mg/kg of BPA, temozolomide or compound I solution was injected via the tail vein of the mice. After administration, the major tissues and organs (heart, liver, spleen, lungs, kidneys and tumor sites) of the mice were removed at selected time periods (1 hour, 2 hours, and 4 hours). After washing and weighing, the tissues and organs were digested with concentrated nitric acid. The digested tissue sample was diluted and the concentration in the sample was determined by ICP-MS.
Compound,uptake by other types of tumor cells [1],boron concentration in the cells (B content in every 10^6 cells) [2],cellular uptake compared with BPA [3],"cellular uptake compared with BPA (glioma cell line U251; U251 cells, 12 hours, FIG. 3)","uptake, ranking among cell lines (glioma cell line U251; U251 versus U87MG, A549, A375, within 12 hours)",cellular uptake compared with BPA [4],uptake in the mouse cerebral glioma site compared with BPA (HS683 cerebral glioma)
"N[C@@H](Cc1ccc(B(O)O)cc1)C(=O)O [BPA, ^10B-p-Dicarboxylboronic acid phenylalanine]",taken up,–,–,–,–,–,–
Cn1nnc2c(C(=O)OCc3ccc([B-]45OCC[N+]4(C)CCO5)cc3)ncn2c1=O (stereo not shown) [Compound I],–,positively correlated with the concentration of the added product,significantly higher than BPA,significantly higher than BPA,best uptake,significantly higher than BPA,higher than that of BPA
